Data on two compounds can be found in ChEMBL document CHEMBL1134202, “Selectivity of inhibition of matrix metalloproteases MMP-3 and MMP-2 by succinyl hydroxamates and their carboxylic acid analogues is dependent on P3' group chirality” (Bioorg Med Chem Lett, 2001).

Assay [1] deals with Stromelysin-1 (Homo sapiens, UniProt P08254).
Assay [2] concerns the target Matrix metalloproteinase-14 (Homo sapiens, UniProt P50281).
Assay [3] addresses Matrix metalloproteinase-9 (Homo sapiens, UniProt P14780).

Chain of Matrix metalloproteinase-9 (P14780 whole entry): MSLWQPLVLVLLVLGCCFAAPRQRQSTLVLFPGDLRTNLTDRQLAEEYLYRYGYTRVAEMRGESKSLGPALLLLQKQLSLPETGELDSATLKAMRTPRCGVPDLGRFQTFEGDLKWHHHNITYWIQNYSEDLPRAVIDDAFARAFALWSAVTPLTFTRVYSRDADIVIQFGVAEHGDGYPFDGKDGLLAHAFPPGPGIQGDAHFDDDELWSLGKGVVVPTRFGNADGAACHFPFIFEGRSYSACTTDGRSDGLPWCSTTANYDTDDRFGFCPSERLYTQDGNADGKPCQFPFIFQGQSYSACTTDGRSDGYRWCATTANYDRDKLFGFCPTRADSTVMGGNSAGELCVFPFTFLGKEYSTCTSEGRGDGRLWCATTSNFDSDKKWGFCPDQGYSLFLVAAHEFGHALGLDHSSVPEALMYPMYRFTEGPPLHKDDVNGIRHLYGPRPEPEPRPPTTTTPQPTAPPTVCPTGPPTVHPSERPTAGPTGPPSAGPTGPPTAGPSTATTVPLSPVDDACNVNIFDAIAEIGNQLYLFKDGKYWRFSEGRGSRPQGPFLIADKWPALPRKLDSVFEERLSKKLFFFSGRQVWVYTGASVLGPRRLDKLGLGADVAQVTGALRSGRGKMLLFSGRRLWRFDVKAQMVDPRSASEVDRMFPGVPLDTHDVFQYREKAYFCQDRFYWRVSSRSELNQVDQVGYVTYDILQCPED
Chain of Stromelysin-1 (P08254 whole entry): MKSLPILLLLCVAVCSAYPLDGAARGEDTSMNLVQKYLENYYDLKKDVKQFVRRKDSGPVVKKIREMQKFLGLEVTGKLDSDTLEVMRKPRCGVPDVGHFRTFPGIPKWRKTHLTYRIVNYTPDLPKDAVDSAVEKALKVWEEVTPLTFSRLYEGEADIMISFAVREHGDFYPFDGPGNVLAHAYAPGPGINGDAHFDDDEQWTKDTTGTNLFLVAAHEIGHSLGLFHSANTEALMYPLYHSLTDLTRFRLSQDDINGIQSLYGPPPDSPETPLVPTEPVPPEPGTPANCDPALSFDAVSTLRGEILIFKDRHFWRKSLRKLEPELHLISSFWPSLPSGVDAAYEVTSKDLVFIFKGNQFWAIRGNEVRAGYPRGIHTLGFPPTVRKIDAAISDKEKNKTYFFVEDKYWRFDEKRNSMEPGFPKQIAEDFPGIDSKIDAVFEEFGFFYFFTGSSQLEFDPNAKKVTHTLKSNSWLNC

For orientation: Ki means a measure of affinity in units of concentration, obtained from inhibition or displacement. A low value points to higher affinity. In the case of `CNC(=O)[C@H](Cc1c[nH]c2ccccc12)NC(=O)[C@@H](CC(=O)NO)CC(C)C` [ILOMASTAT], in assay [1], affinity was put at a Ki of 26 nM. For orientation: IC50 means the concentration that inhibits the measured activity by half. Low readings indicate inhibition by little substance, high ones a need for much substance. Take `CNC(=O)[C@H](Cc1ccccc1)NC(=O)[C@H](CC(C)C)[C@H](CSc1cccs1)C(=O)NO` [BATIMASTAT]: the IC50 came to 2.9 nM in assay [2] and 0.67 nM in assay [3].
